# From patent publication US12391726B2, “Ursolic acid morpholine salt” (EMMYON, INC., priority 2017, dated 2025)
# Structures can show the parent of a compound that is named as a salt. Where two headings read alike, the source gives them in different places. Marks after values point to notes of the source that are not given here.
# How the values were obtained:
# male C57BL/6 mice [1] = test: Comparative grip strength testing for ursolic acid and salts thereof (standard chow, 6 weeks); type: in vivo; settings: for Grip Strength (% Change vs. Control): 6 weeks, mean ± SEM, 12 mice; for Potency and efficacy compared with native ursolic acid and other ursolic acid salts: conclusion from Table I grip strength data
# Text: Weight-matched cohorts of 8-week old male C57BL/6 mice were randomized to receive ad libitum access to either standard chow (control) or standard chow supplemented with either 0.050% ursolic acid, 0.200% ursolic acid, or one of the indicated ursolic acid salts: ursolic acid-ethanolamine salt; ursolic acid-tris(hydroxymethyl)aminomethane salt, hereinafter referred to as ursolic acid-“tris” salt; ursolic acid-lysine salt; ursolic acid-diethanolamine salt; ursolic acid-morpholine salt; or ursolic acid-piperazine salt. The ursolic acid-diethanolamine salt and ursolic acid-morpholine salt were prepared as described above. Ursolic acid was commercially obtained, and was used as a starting material to make the other ursolic acid salts according to techniques analogous to those above and known in the art. The doses of ursolic acid salts were molar-matched to either 0.050% ursolic acid (i.e. 0.057% ursolic acid-ethanolamine salt, 0.063% ursolic acid-tris salt, 0.066% ursolic acid-lysine salt, 0.059% ursolic acid-morpholine salt, and 0.059% ursolic acid-piperazine salt) or to 0.048% ursolic acid (i.e. 0.060% ursolic acid-diethanolamine salt). After mice had consumed these diets for 6 weeks, in vivo grip strength was measured.
# C2C12 myotubes = test: Total cellular protein in cultured C2C12 myotubes (in vitro model of skeletal muscle); type: cell-based; settings: 48 hours, 10% FBS; for Total cellular protein (FIG. 6): normalized to vehicle-treated, dose-dependent
# Procedure: A direct, side-by-side comparison of ursolic acid and ursolic acid-morpholine salt was performed in an in vitro model of skeletal muscle. C2C12 myoblasts were cultured and fully differentiated into post-mitotic skeletal myotubes, then incubated for 48 hours with 10% fetal bovine serum (FBS) plus the indicated concentrations of ursolic acid or ursolic acid-morpholine salt. Myotubes were then harvested for assessment of total cellular protein, which increases as myotubes undergo hypertrophy. (See Dyle et al., Systems-based discovery of tomatidine as a natural small molecule inhibitor of skeletal muscle atrophy, Journal of Biological Chemistry 289, (2014) 14913-14924.) Total protein in each sample was normalized to the amount of in vehicle-treated myotubes. […] Results are shown in FIG. 6, which is a graph depicting results from the direct, side-by-side comparison of ursolic acid and ursolic acid-morpholine salt in the cultured C2C12 myotubes in vitro model of skeletal muscle.
# male C57BL/6 mice [2] = test: Direct comparison to molar-matched ursolic acid in obesity-induced glucose intolerance (high-fat chow, 7 weeks); type: in vivo; settings: 6 h fast, 0.050% ursolic acid or 0.059% morpholine salt, P<0.01
# Procedure: Weight-matched cohorts of 8-week old male C57BL/6 mice were randomized to receive ad libitum access to either high-fat chow supplemented with 0.050% ursolic acid, or high-fat chow supplemented with a molar-matched dose of ursolic acid-morpholine salt (0.059%). After mice had consumed the diets for 7 weeks, mice were fasted for 6 hours and then subjected to glucose tolerance testing. […] Data are means±SEM from 10 mice per cohort.
# male C57BL/6 mice [3] = settings: high-fat chow, 8 weeks, 0.500% Ursolic Acid or 0.059% morpholine salt; for Skeletal Muscle Wt (mg/g Final Body Wt): total dissected muscle weight normalized to final body weight
# Text: Weight-matched cohorts of 8-week old male C57BL/6 mice were randomized to receive ad libitum access to either high-fat chow (control), high-fat chow supplemented with 0.050% ursolic acid, or high-fat chow supplemented with a molar-matched dose of ursolic acid-morpholine salt (0.059%). Just prior to starting these diets, mice were weighed and subjected to body composition analysis by NMR. After mice had consumed the diets for 8 weeks, body weight and body composition were re-assessed, retroperitoneal and epididymal fat pads were dissected and weighed, and skeletal muscles (tibialis anterior, gastrocnemius, soleus, quadriceps and triceps) were dissected and weighed. In each mouse, the total dissected skeletal muscle weight (combined weight of bilateral tibialis anterior, gastrocnemius, soleus, quadriceps and triceps muscles) was normalized to the final body weight. Data are means±SEM from 10 mice per cohort.
# male C57BL/6 mice [4] = settings: quadriceps, 0.059% in standard chow, 7 weeks, vs control
# Text: (§1) Weight-matched cohorts of 8-week old male C57BL/6 mice were randomized to receive ad libitum access to either standard chow (control) or standard chow supplemented with 0.059% ursolic acid-morpholine salt. After mice had consumed these diets for 7 weeks, quadriceps muscles were dissected, fixed, cross-sectioned, stained with hematoxylin and eosin, and subjected to photomicrography. FIG. 1A is a photomicrograph of quadriceps skeletal muscle fibers from the control group. FIG. 1B is a photomicrograph of quadriceps skeletal muscle fibers from the ursolic acid-morpholine salt group.
# male C57BL/6 mice [5] = settings: 0.059% in standard chow, 7 weeks
# Procedure: Weight-matched cohorts of 8-week old male C57BL/6 mice were randomized to receive ad libitum access to either standard chow (control) or standard chow supplemented with 0.059% ursolic acid-morpholine salt. After mice had consumed these diets for 7 weeks, in vivo, grip strength was measured, mice were weighed, body composition was assessed by NMR, and quadriceps muscles were dissected for histological analysis of skeletal muscle fiber cross-sectional diameter.
# male C57BL/6 mice [6] = settings: retroperitoneal fat pads, 0.059% in standard chow, 7 weeks, vs control
# Text: as §1, with “retroperitoneal fat pads” for “quadriceps muscles”, “2A” for “1A”, “adipocytes from retroperitoneal fat pads” for “quadriceps skeletal muscle fibers”, “2B” for “1B”
# male C57BL/6 mice [7] = test: Comparison with a maximally effective dose of ursolic acid (high-fat diet, 7 weeks, glucose tolerance test); type: in vivo; settings: 0.059% morpholine salt vs 0.20% w/w ursolic acid
# Procedure: After 7 weeks on the diets, mice were fasted for 6 hours and were then subjected to glucose tolerance tests.
# diet-induced obese mice = test: Obesity and blood glucose testing (high-fat chow, 9 weeks); type: in vivo; settings: 0.059% in high-fat chow
# Text: Weight-matched cohorts of 8-week old male C57BL/6 mice were randomized to receive ad libitum access to either high-fat chow (control) or high-fat chow supplemented with 0.059% ursolic acid-morpholine salt. Just prior to starting these diets, mice were weighed and subjected to body composition analysis by NMR. After mice had consumed the diets for 9 weeks, body weight and body composition were re-assessed, retroperitoneal and epididymal fat pads were dissected and weighed, and non-fasting blood glucose was measured.
# male C57BL/6 mice [8] = settings: 0.059% in high-fat chow, 8 weeks, 6 h fast; control 37,122±1,339; P<0.01
# Procedure: Weight-matched cohorts of 8-week old male C57BL/6 mice were randomized to receive ad libitum access to either high-fat chow (control) or high-fat chow supplemented with 0.059% ursolic acid-morpholine salt. After mice had consumed the diets for 8 weeks, mice were fasted for 6 hours and then subjected to glucose tolerance testing. Results are shown in FIG. 3, which is a graph depicting glucose tolerance testing results. Data are means±SEM from 15 mice per cohort.
# male C57BL/6 mice [9] = test: Ursolic acid-diethanolamine salt: body weight and composition testing (standard chow, 7 weeks); type: in vivo
# Procedure: After mice had consumed these diets for 7 weeks, mice were weighed and body composition was assessed by NMR. Data are means±SEM from 15 mice per cohort. *P<0.05.
# [10] = standard chow supplemented, doses molar-matched to 0.050% ursolic acid (0.048% for diethanolamine salt): 0.050% ursolic acid, 0.057% ethanolamine, 0.063% tris, 0.066% lysine, 0.060% diethanolamine, 0.059% morpholine, 0.059% piperazine salt
smiles,measurement,setting,value
"C[C@H]1[C@H](C)CC[C@]2(C(=O)O)CC[C@]3(C)C(=CC[C@@H]4[C@@]5(C)CC[C@H](O)C(C)(C)C5CC[C@]43C)[C@H]12 (stereo partly shown) [Ursolic Acid, Ursolic acid]",Grip Strength (% Change vs. Control),male C57BL/6 mice [1]; [10],7.7 ± 1.9%
same,Grip Strength (% Change vs. Control),male C57BL/6 mice [1]; standard chow with 0.200% ursolic acid,9.9 ± 2.2 %
same,Total cellular protein (FIG. 6),C2C12 myotubes,significantly increased
same,Fasting blood glucose,male C57BL/6 mice [2],166.3 ± 3.7 mg/dL
same,Glucose tolerance test area under the curve (AUC),male C57BL/6 mice [2],"40,585±1,357"
same,Epididymal Fat Pad Wt,male C57BL/6 mice [3],2208.6 ± 52.0 ^a mg
same,Final % Fat,male C57BL/6 mice [3],39.8 ± 0.7 ^a %
same,Final % Lean,male C57BL/6 mice [3],50.4 ± 0.5 ^a %
same,Final Body Wt,male C57BL/6 mice [3],40.8 ± 0.5 ^a g
same,Final Fat Mass,male C57BL/6 mice [3],16.3 ± 0.3 ^a g
same,Final Lean Mass,male C57BL/6 mice [3],20.6 ± 0.3 ^a g
same,Retroperitoneal Fat Pad Wt,male C57BL/6 mice [3],986.1 ± 21.8 ^a mg
same,Skeletal Muscle Wt (mg/g Final Body Wt),male C57BL/6 mice [3],25.5 ± 0.4 ^a mg/g Final Body Wt
"CC1CCC2(C(=O)O)CCC3(C)C(=CCC4C5(C)CCC(O)C(C)(C)C5CCC43C)C2C1C.NCCO (stereo not shown) [Ursolic Acid-Ethanolamine Salt, ursolic acid-ethanolamine salt]",Grip Strength (% Change vs. Control),male C57BL/6 mice [1]; [10],2.8 ± 1.6%
"C[C@H]1[C@H](C)CC[C@]2(C(=O)O)CC[C@]3(C)C(=CC[C@@H]4[C@@]5(C)CC[C@H](O)C(C)(C)[C@@H]5CC[C@]43C)[C@H]12 [Ursolic Acid-Morpholine Salt, ursolic acid morpholine salt]",Skeletal muscle fiber size (FIGS. 1A and 1B),male C57BL/6 mice [4],increased skeletal muscle fiber size
same,Final Body Wt,male C57BL/6 mice [5],34.6 ± 1.0 g
same,Final Grip Strength,male C57BL/6 mice [5],181.9 ± 2.4 g
same,Final % Fat,male C57BL/6 mice [5]; NMR,21.4 ± 2.9 %
same,Final % Lean,male C57BL/6 mice [5]; NMR,61.0 ± 2.2 %
same,Final Fat Mass,male C57BL/6 mice [5]; NMR,7.8 ± 1.2 g
same,Final Lean Mass,male C57BL/6 mice [5]; NMR,20.8 ± 0.3 g
same,Skeletal muscle hypertrophy,male C57BL/6 mice [5]; conclusion from Table II,stimulated skeletal muscle hypertrophy
same,Muscle fiber diameter,"male C57BL/6 mice [5]; quadriceps, >4200 fibers per diet",44.8 ± 0.2 μm
same,Adipocyte size (FIGS. 2A and 2B),male C57BL/6 mice [6],decreased adipocyte size
same,Glucose tolerance test AUC relative to ursolic acid (FIG. 5),"male C57BL/6 mice [7]; 7 weeks, 6 h fast, P<0.05",significantly lower
same,Grip strength relative to ursolic acid,male C57BL/6 mice [7]; P=0.05,significantly improved
same,Potency and efficacy compared with native ursolic acid and other ursolic acid salts,male C57BL/6 mice [1],more potent and efficacious
same,Grip Strength (% Change vs. Control),male C57BL/6 mice [1]; [10],11.3 ± 2.1 %
same,Efficacy relative to ursolic acid (total cellular protein),C2C12 myotubes,3 fold
same,Potency relative to ursolic acid (total cellular protein),C2C12 myotubes,3 fold
same,Total cellular protein (FIG. 6),C2C12 myotubes,significantly increased
same,Fasting blood glucose,male C57BL/6 mice [2],140.6 ± 7.8 mg/dL
same,Glucose tolerance test area under the curve (AUC),male C57BL/6 mice [2],"32,606±2,471"
same,Epididymal Fat Pad Wt,diet-induced obese mice,1804.0 ± 161.5 mg
same,Final % Fat,diet-induced obese mice,31.8 ± 3.1 %
same,Final % Lean,diet-induced obese mice,55.3 ± 2.4 %
same,Final Body Wt,diet-induced obese mice,38.9 ± 1.2 g
same,Final Fat Mass,diet-induced obese mice,12.8 ± 1.4 g
same,Final Lean Mass,diet-induced obese mice,21.3 ± 0.6 g
same,Retroperitoneal Fat Pad Wt,diet-induced obese mice,731.8 ± 86.9 mg
same,Obesity in diet-induced obese mice,diet-induced obese mice; conclusion from Table III,reduced obesity
same,Blood Glucose,diet-induced obese mice; non-fasting,177.7 ± 9.9 mg/dL
same,Epididymal Fat Pad Wt,male C57BL/6 mice [3],1713.8 ± 139.8 ^b mg
same,Final % Fat,male C57BL/6 mice [3],31.4 ± 2.8 ^b %
same,Final % Lean,male C57BL/6 mice [3],57.3 ± 2.1 ^b %
same,Final Body Wt,male C57BL/6 mice [3],36.6 ± 0.9 ^b g
same,Final Fat Mass,male C57BL/6 mice [3],11.6 ± 1.2 ^b g
same,Final Lean Mass,male C57BL/6 mice [3],20.9 ± 0.7 ^a g
same,Retroperitoneal Fat Pad Wt,male C57BL/6 mice [3],709.8 ± 72.2 ^b mg
same,Skeletal Muscle Wt (mg/g Final Body Wt),male C57BL/6 mice [3],29.1 ± 1.0 ^b mg/g Final Body Wt
same,Glucose tolerance test area under the curve (AUC),male C57BL/6 mice [8],"31,383±1,869"
"CC1CCC2(C(=O)O)CCC3(C)C(=CCC4C5(C)CCC(O)C(C)(C)C5CCC43C)C2C1C.NC(CO)(CO)CO (stereo not shown) [Ursolic Acid-Tris Salt, ursolic acid-tris(hydroxymethyl)aminomethane salt]",Grip Strength (% Change vs. Control),male C57BL/6 mice [1]; [10],5.2 ± 1.6%
"CC1CCC2(C(=O)O)CCC3(C)C(=CCC4C5(C)CCC(O)C(C)(C)C5CCC43C)C2C1C.NCCCCC(N)C(=O)O (stereo not shown) [Ursolic Acid-Lysine Salt, ursolic acid-lysine salt]",Grip Strength (% Change vs. Control),male C57BL/6 mice [1]; [10],7.2 ± 2.3%
"C[C@H]1[C@H](C)CC[C@]2(C(=O)O)CC[C@]3(C)C(=CCC4[C@@]5(C)CC[C@H](O)C(C)(C)C5CC[C@]43C)[C@H]12 (stereo partly shown) [Ursolic Acid-Diethanolamine Salt, ursolic acid diethanolamine salt]",Potency and efficacy compared with native ursolic acid and other ursolic acid salts,male C57BL/6 mice [1],more potent and efficacious
same,Grip Strength (% Change vs. Control),male C57BL/6 mice [1]; [10],11.7 ± 2.5 %
same,Final % Fat,male C57BL/6 mice [9]; 0.060% in standard chow,16.6 ± 2.0%
same,Final % Lean,male C57BL/6 mice [9]; 0.060% in standard chow,64.2 ± 1.6%
same,Final Body Wt,male C57BL/6 mice [9]; 0.060% in standard chow,31.7 ± 0.5 g
same,Final Fat Mass,male C57BL/6 mice [9]; 0.060% in standard chow,5.3 ± 0.7 g
same,Final Lean Mass,male C57BL/6 mice [9]; 0.060% in standard chow,20.3 ± 0.4* g
same,Final % Fat,male C57BL/6 mice [9]; 0.180% in standard chow,14.1 ± 1.8* %
same,Final % Lean,male C57BL/6 mice [9]; 0.180% in standard chow,65.5 ± 1.4* %
same,Final Body Wt,male C57BL/6 mice [9]; 0.180% in standard chow,30.7 ± 0.5 g
same,Final Fat Mass,male C57BL/6 mice [9]; 0.180% in standard chow,4.4 ± 0.6* g
same,Final Lean Mass,male C57BL/6 mice [9]; 0.180% in standard chow,20.0 ± 0.3 g
same,Lean mass and fat mass (conclusion),"male C57BL/6 mice [9]; conclusion from Table IV, standard chow",increased lean mass and decreased fat mass
"C1CNCCN1.C[C@H]1[C@H](C)CC[C@]2(C(=O)O)CC[C@]3(C)C(=CC[C@@H]4[C@@]5(C)CC[C@H](O)C(C)(C)[C@@H]5CC[C@]43C)[C@H]12 [Ursolic Acid-Piperazine Salt, ursolic acid-piperazine salt]",Grip Strength (% Change vs. Control),male C57BL/6 mice [1]; [10],3.7 ± 2.5%
